Measured values as given in PubChem BioAssay (NCI).
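Cultured in 96-well plates, cells were exposed to test compound for 48 hours across five concentrations. TGI denotes the concentration required for complete inhibition of growth.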

Experiments:
Test in all cases: NCI tumour cell line growth inhibition, 48 h
786-0 renal = system: 786-0 renal
A498 renal = system: A498 renal
A549 NSCLC = system: A549 NSCLC
ACHN renal = system: ACHN renal
CAKI-1 renal = system: CAKI-1 renal
CCRF-CEM leukemia = system: CCRF-CEM leukemia
COLO 205 colon = system: COLO 205 colon
DLD-1 colon = system: DLD-1 colon
DMS 114 small cell lung = system: DMS 114 small cell lung
EKVX NSCLC = system: EKVX NSCLC
HCC-2998 colon = system: HCC-2998 colon
HCT-116 colon = system: HCT-116 colon
HCT-15 colon = system: HCT-15 colon
HL-60(TB) leukemia = system: HL-60(TB) leukemia
HOP-18 NSCLC = system: HOP-18 NSCLC
HOP-62 NSCLC = system: HOP-62 NSCLC
HOP-92 NSCLC = system: HOP-92 NSCLC
HT29 colon = system: HT29 colon
IGROV1 ovarian = system: IGROV1 ovarian
K-562 leukemia = system: K-562 leukemia
KM12 colon = system: KM12 colon
KM20L2 colon = system: KM20L2 colon
LOX IMVI melanoma = system: LOX IMVI melanoma
LXFL 529 NSCLC = system: LXFL 529 NSCLC
M14 melanoma = system: M14 melanoma
M19-MEL melanoma = system: M19-MEL melanoma
MALME-3M melanoma = system: MALME-3M melanoma
MOLT-4 leukemia = system: MOLT-4 leukemia
NCI-H23 lung = system: NCI-H23 lung
NCI-H460 lung = system: NCI-H460 lung
OVCAR-3 ovarian = system: OVCAR-3 ovarian
OVCAR-4 ovarian = system: OVCAR-4 ovarian
OVCAR-5 ovarian = system: OVCAR-5 ovarian
OVCAR-8 ovarian = system: OVCAR-8 ovarian
RPMI-8226 leukemia = system: RPMI-8226 leukemia
RXF 393 renal = system: RXF 393 renal
RXF-631 renal = system: RXF-631 renal
SF-268 CNS = system: SF-268 CNS
SF-295 CNS = system: SF-295 CNS
SF-539 CNS = system: SF-539 CNS
SK-MEL-2 melanoma = system: SK-MEL-2 melanoma
SK-MEL-5 melanoma = system: SK-MEL-5 melanoma
SK-OV-3 ovarian = system: SK-OV-3 ovarian
SN12C renal = system: SN12C renal
SNB-19 CNS = system: SNB-19 CNS
SNB-75 CNS = system: SNB-75 CNS
SNB-78 CNS = system: SNB-78 CNS
SW-620 colon = system: SW-620 colon
TK-10 renal = system: TK-10 renal
U251 CNS = system: U251 CNS
UACC-257 melanoma = system: UACC-257 melanoma
UACC-62 melanoma = system: UACC-62 melanoma
UO-31 renal = system: UO-31 renal
XF 498 CNS = system: XF 498 CNS
DMS 273 small cell lung = system: DMS 273 small cell lung
MCF7 breast = system: MCF7 breast
NCI-H226 lung = system: NCI-H226 lung
NCI-H522 lung = system: NCI-H522 lung
NCI/ADR-RES ovarian = system: NCI/ADR-RES ovarian
P388 leukemia = system: P388 leukemia
P388/ADR leukemia = system: P388/ADR leukemia
SK-MEL-28 melanoma = system: SK-MEL-28 melanoma
SN12K1 renal = system: SN12K1 renal
SR leukemia = system: SR leukemia

CN1CCc2c1nc(-c1ccc([N+](=O)[O-])cc1)c1c2N(C)CC1
TGI (786-0 renal): > 100 µM | TGI (A498 renal): > 100 µM | TGI (A549 NSCLC): > 100 µM | TGI (ACHN renal): > 100 µM | TGI (CAKI-1 renal): > 100 µM | TGI (CCRF-CEM leukemia): > 100 µM | TGI (COLO 205 colon): > 100 µM | TGI (DLD-1 colon): > 100 µM | TGI (DMS 114 small cell lung): > 100 µM | TGI (EKVX NSCLC): > 100 µM | TGI (HCC-2998 colon): > 100 µM | TGI (HCT-116 colon): > 100 µM | TGI (HCT-15 colon): > 100 µM | TGI (HL-60(TB) leukemia): > 100 µM | TGI (HOP-18 NSCLC): > 100 µM | TGI (HOP-62 NSCLC): > 100 µM | TGI (HOP-92 NSCLC): > 100 µM | TGI (HT29 colon): > 100 µM | TGI (IGROV1 ovarian): > 100 µM | TGI (K-562 leukemia): > 100 µM | TGI (KM12 colon): > 100 µM | TGI (KM20L2 colon): > 100 µM | TGI (LOX IMVI melanoma): > 100 µM | TGI (LXFL 529 NSCLC): > 100 µM | TGI (M14 melanoma): > 100 µM | TGI (M19-MEL melanoma): > 100 µM | TGI (MALME-3M melanoma): > 100 µM | TGI (MOLT-4 leukemia): > 100 µM | TGI (NCI-H23 lung): > 100 µM | TGI (NCI-H460 lung): > 100 µM | TGI (OVCAR-3 ovarian): > 100 µM | TGI (OVCAR-4 ovarian): > 100 µM | TGI (OVCAR-5 ovarian): > 100 µM | TGI (OVCAR-8 ovarian): > 100 µM | TGI (RPMI-8226 leukemia): > 100 µM | TGI (RXF 393 renal): > 100 µM | TGI (RXF-631 renal): > 100 µM | TGI (SF-268 CNS): > 100 µM | TGI (SF-295 CNS): > 100 µM | TGI (SF-539 CNS): > 100 µM | TGI (SK-MEL-2 melanoma): > 100 µM | TGI (SK-MEL-5 melanoma): > 100 µM | TGI (SK-OV-3 ovarian): > 100 µM | TGI (SN12C renal): > 100 µM | TGI (SNB-19 CNS): > 100 µM | TGI (SNB-75 CNS): > 100 µM | TGI (SNB-78 CNS): > 100 µM | TGI (SW-620 colon): > 100 µM | TGI (TK-10 renal): > 100 µM | TGI (U251 CNS): > 100 µM | TGI (UACC-257 melanoma): > 100 µM | TGI (UACC-62 melanoma): > 100 µM | TGI (UO-31 renal): > 100 µM | TGI (XF 498 CNS): > 100 µM

Cc1csc(NC(=NCCN2CCOCC2)Nc2nc(C)cs2)n1
TGI (A498 renal): > 100 µM | TGI (A549 NSCLC): > 100 µM | TGI (CAKI-1 renal): > 100 µM | TGI (CCRF-CEM leukemia): > 100 µM | TGI (COLO 205 colon): > 100 µM | TGI (DLD-1 colon): > 100 µM | TGI (DMS 114 small cell lung): > 100 µM | TGI (DMS 273 small cell lung): > 100 µM | TGI (EKVX NSCLC): > 100 µM | TGI (HCC-2998 colon): > 100 µM | TGI (HCT-116 colon): > 100 µM | TGI (HCT-15 colon): > 100 µM | TGI (HL-60(TB) leukemia): > 100 µM | TGI (HOP-18 NSCLC): > 100 µM | TGI (HOP-62 NSCLC): > 100 µM | TGI (HOP-92 NSCLC): > 100 µM | TGI (HT29 colon): > 100 µM | TGI (IGROV1 ovarian): > 100 µM | TGI (K-562 leukemia): > 100 µM | TGI (KM12 colon): > 100 µM | TGI (KM20L2 colon): > 100 µM | TGI (LOX IMVI melanoma): > 100 µM | TGI (M19-MEL melanoma): > 100 µM | TGI (MALME-3M melanoma): > 100 µM | TGI (MCF7 breast): > 100 µM | TGI (MOLT-4 leukemia): > 100 µM | TGI (NCI-H226 lung): > 100 µM | TGI (NCI-H23 lung): > 100 µM | TGI (NCI-H460 lung): > 100 µM | TGI (NCI-H522 lung): > 100 µM | TGI (NCI/ADR-RES ovarian): > 100 µM | TGI (OVCAR-3 ovarian): > 100 µM | TGI (OVCAR-4 ovarian): > 100 µM | TGI (OVCAR-5 ovarian): > 100 µM | TGI (OVCAR-8 ovarian): > 100 µM | TGI (P388 leukemia): > 31.6 µM | TGI (P388/ADR leukemia): > 100 µM | TGI (RPMI-8226 leukemia): > 100 µM | TGI (RXF 393 renal): > 100 µM | TGI (SF-268 CNS): > 100 µM | TGI (SF-295 CNS): > 100 µM | TGI (SF-539 CNS): > 100 µM | TGI (SK-MEL-2 melanoma): > 100 µM | TGI (SK-MEL-28 melanoma): > 100 µM | TGI (SK-MEL-5 melanoma): > 100 µM | TGI (SK-OV-3 ovarian): > 100 µM | TGI (SN12C renal): > 100 µM | TGI (SN12K1 renal): > 100 µM | TGI (SNB-19 CNS): > 100 µM | TGI (SNB-75 CNS): > 100 µM | TGI (SNB-78 CNS): > 100 µM | TGI (SW-620 colon): > 100 µM | TGI (U251 CNS): > 100 µM | TGI (UACC-257 melanoma): > 100 µM | TGI (UACC-62 melanoma): > 100 µM | TGI (UO-31 renal): > 100 µM | TGI (XF 498 CNS): > 100 µM

C[N+](C)(C)CC1CCCC(C[N+](C)(C)C)C1O (stereo not drawn)
TGI (786-0 renal): > 100 µM | TGI (A498 renal): > 100 µM | TGI (A549 NSCLC): > 100 µM | TGI (ACHN renal): > 100 µM | TGI (CAKI-1 renal): > 100 µM | TGI (CCRF-CEM leukemia): > 100 µM | TGI (COLO 205 colon): > 100 µM | TGI (DLD-1 colon): > 100 µM | TGI (DMS 114 small cell lung): > 100 µM | TGI (DMS 273 small cell lung): > 100 µM | TGI (EKVX NSCLC): > 100 µM | TGI (HCC-2998 colon): > 100 µM | TGI (HCT-116 colon): > 100 µM | TGI (HCT-15 colon): > 100 µM | TGI (HL-60(TB) leukemia): > 100 µM | TGI (HOP-18 NSCLC): > 100 µM | TGI (HOP-62 NSCLC): > 100 µM | TGI (HOP-92 NSCLC): > 100 µM | TGI (HT29 colon): > 100 µM | TGI (IGROV1 ovarian): > 100 µM | TGI (K-562 leukemia): > 100 µM | TGI (KM12 colon): > 100 µM | TGI (KM20L2 colon): > 100 µM | TGI (LOX IMVI melanoma): > 100 µM | TGI (LXFL 529 NSCLC): > 100 µM | TGI (M14 melanoma): > 100 µM | TGI (M19-MEL melanoma): > 100 µM | TGI (MALME-3M melanoma): > 100 µM | TGI (MOLT-4 leukemia): > 100 µM | TGI (NCI-H226 lung): > 100 µM | TGI (NCI-H23 lung): > 100 µM | TGI (NCI-H460 lung): > 100 µM | TGI (NCI-H522 lung): > 100 µM | TGI (OVCAR-3 ovarian): > 100 µM | TGI (OVCAR-4 ovarian): > 100 µM | TGI (OVCAR-5 ovarian): > 100 µM | TGI (OVCAR-8 ovarian): > 100 µM | TGI (RPMI-8226 leukemia): > 100 µM | TGI (RXF 393 renal): > 100 µM | TGI (RXF-631 renal): > 100 µM | TGI (SF-268 CNS): > 100 µM | TGI (SF-295 CNS): > 100 µM | TGI (SF-539 CNS): > 100 µM | TGI (SK-MEL-2 melanoma): > 100 µM | TGI (SK-MEL-28 melanoma): > 100 µM | TGI (SK-MEL-5 melanoma): > 100 µM | TGI (SK-OV-3 ovarian): > 100 µM | TGI (SN12C renal): > 100 µM | TGI (SNB-75 CNS): > 100 µM | TGI (SNB-78 CNS): > 100 µM | TGI (SR leukemia): > 100 µM | TGI (SW-620 colon): > 100 µM | TGI (TK-10 renal): > 100 µM | TGI (U251 CNS): > 100 µM | TGI (UACC-257 melanoma): > 100 µM | TGI (UACC-62 melanoma): > 100 µM | TGI (UO-31 renal): > 100 µM
